In test [1] the target is T1, mushroom tyrosinase (Agaricus bisporus, UniProt C7FF04). Description: Enzymatic assay for tyrosinase inhibition. The class given is biochemical. The note with it: read-out: Inhibition% ± SEM.
Test [2] is described as follows: DPPH free radical scavenging assay. To be noted: 517 nm; for DPPH (%): radical scavenging, concentration not given; for EC50: read-out: EC50 (DPPH radical scavenging).
Test [3] concerns the target T1, mushroom tyrosinase. Description: Determination of the inhibition type. The class given is biochemical. To be noted: Lineweaver-Burk.

Structures are written as SMILES. “Also recorded” adds a separate entry of the source. Bounds are passed on as bounds.

T1 sequence (C7FF04 2-392): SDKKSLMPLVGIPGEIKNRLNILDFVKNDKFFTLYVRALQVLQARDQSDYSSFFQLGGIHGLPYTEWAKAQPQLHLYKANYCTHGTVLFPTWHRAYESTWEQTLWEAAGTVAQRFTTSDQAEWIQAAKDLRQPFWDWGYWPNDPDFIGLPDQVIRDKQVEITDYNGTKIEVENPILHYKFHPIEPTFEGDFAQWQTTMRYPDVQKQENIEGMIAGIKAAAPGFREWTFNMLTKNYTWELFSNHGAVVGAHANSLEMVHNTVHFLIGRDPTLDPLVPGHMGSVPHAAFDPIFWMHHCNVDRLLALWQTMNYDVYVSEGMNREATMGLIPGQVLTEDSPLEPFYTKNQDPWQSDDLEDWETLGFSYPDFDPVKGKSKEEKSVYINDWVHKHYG

Usually inhibition stands for the change of the read-out against control, counted positive when it falls. Broadly, the EC50 is the midpoint of the concentration-response curve. For the molecule `Cc1c(O)c(=O)ccn1-c1cccc(C(=O)NN=Cc2ccccc2[N+](=O)[O-])c1` [6a, 3-(3-hydroxy-2-methyl-4-oxopyridin-1(4H)-yl)-N′-(2-nitrobenzylidene)benzohydrazide], the inhibition at 50 µM in test [1] is 46.1 ± 8.21%. Moreover, in test [2], the “DPPH (%)” value is listed as 77.15% and the EC50 is 32 ± 10 µM.

For the molecule `Cc1c(O)c(=O)ccn1-c1cccc(C(=O)NN=Cc2ccc(F)cc2)c1` [6b, 3-(3-hydroxy-2-methyl-4-oxopyridin-1(4H)-yl)-N′-(4-fluorobenzylidene)benzohydrazide], in test [1], the inhibition at 50 µM stood at 43.1 ± 3.41%. In test [2], the “DPPH (%)” value amounted to 71.42% and the EC50 came to 12 µM.

For `Cc1c(O)c(=O)ccn1-c1cccc(C(=O)NN=Cc2ccc(C#N)cc2)c1` [6c, 3-(3-hydroxy-2-methyl-4-oxopyridin-1(4H)-yl)-N′-(4-cyanobenzylidene)benzohydrazide], the inhibition at 50 µM in test [1] turned out to be 30.8 ± 2.85%. In addition, in test [2], the “DPPH (%)” value is recorded as 43.67% and the EC50 stood at 216 ± 80 µM.

For the molecule `Cc1ccc(C=NNC(=O)c2cccc(-n3ccc(=O)c(O)c3C)c2)cc1` [6d, 3-(3-hydroxy-2-methyl-4-oxopyridin-1(4H)-yl)-N′-(4-methylbenzylidene)benzohydrazide], in test [1], the inhibition at 50 µM stood at 49 ± 7.51%. Further, in test [2], the “DPPH (%)” value is given as 39.13% and the EC50 turned out to be 369 ± 10 µM.

Take `Cc1c(O)c(=O)ccn1-c1cccc(C(=O)NN=Cc2ccc(C(C)C)cc2)c1` [6e, 3-(3-hydroxy-2-methyl-4-oxopyridin-1(4H)-yl)-N′-(4-isopropylbenzylidene)benzohydrazide]: the inhibition at 50 µM in test [1] turned out to be 41.7 ± 4.07%. Further, in test [2], the “DPPH (%)” value is recorded as 61.44% and the EC50 was found to be 14 ± 10 µM.

Regarding `COc1cccc(C=NNC(=O)c2cccc(-n3ccc(=O)c(O)c3C)c2)c1[N+](=O)[O-]` [6f, 3-(3-hydroxy-2-methyl-4-oxopyridine-1(4H)-yl)-N′-(3-methoxy-2-nitrobenzylidene)benzohydrazide], the inhibition at 50 µM in test [1] was determined as 34.8 ± 3.83%. In addition, in test [2], the “DPPH (%)” value is on record as 43.67% and the EC50 was 168 ± 30 µM.

As for `Cc1c(O)c(=O)ccn1-c1cccc(C(=O)NN=Cc2ccc(Cl)cc2Cl)c1` [6g, 3-(3-hydroxy-2-methyl-4-oxopyridin-1(4H)-yl)-N′-(2,4-dichlorobenzylidene)benzohydrazide], the inhibition at 50 µM in test [1] was determined as 28.1 ± 3.97%. In addition, in test [2], the “DPPH (%)” value was 39.11% and the EC50 came to 191 ± 70 µM.

As for `Cc1c(O)c(=O)ccn1-c1cccc(C(=O)NN=Cc2cc([N+](=O)[O-])ccc2Cl)c1` [6h, 3-(3-hydroxy-2-methyl-4-oxopyridin-1(4H)-yl)-N′-(2-chloro-5-nitrobenzylidene)benzohydrazide], the inhibition at 50 µM in test [1] was 11.4 ± 2.59%. Besides, in test [2], the “DPPH (%)” value turned out to be 31.91% and the EC50 is over 400 µM.

As to `Cc1c(O)c(=O)ccn1-c1cccc(C(=O)NN=Cc2cc(Br)ccc2O)c1` [6i, 3-(3-hydroxy-2-methyl-4-oxopyridin-1(4H)-yl)-N′-(5-bromo-2-hydroxybenzylidene)benzohydrazide], in test [1], the inhibition at 50 µM was determined as 49.6 ± 12.6%. In addition, in test [2], the “DPPH (%)” value turned out to be 42.64% and the EC50 was 185 ± 130 µM. Further, in test [3] (L-Dopa), the “Km value with increasing inhibitor concentration” value was “increased” and the “Vmax with increasing inhibitor concentration” value is recorded as “not affected”. Moreover, the inhibition type entry in test [3] (inhibitor 0, 12.64, 25.29, 50.58 μM, L-Dopa 0.5-10.0 mM) is “competitive inhibitor; also recorded: competitive type of inhibition”.

As for `Cc1c(O)c(=O)ccn1-c1cccc(C(=O)NN=Cc2ccc([N+](=O)[O-])s2)c1` [6j, 3-(3-hydroxy-2-methyl-4-oxopyridin-1(4H)-yl)-N'-((5-nitrothiophen-2-yl)methylene)benzohydrazide], the inhibition at 50 µM in test [1] came to 40.4 ± 5%. Further, in test [2], the “DPPH (%)” value came out at 42.74% and the EC50 was found to be 383 ± 120 µM.

`O=c1c(O)c(-c2ccc(O)c(O)c2)oc2cc(O)cc(O)c12` [Quercetin, reference compound]: in test [2], the “DPPH (%)” value amounted to 74.33% and the EC50 is 8.9 µM.

The values above are taken from PMC10629491 (RSC Advances, 2023).
